Literature values as cited in patent publication US20210137911A1, “NOVEL CHRONOTHERAPY BASED ON CIRCADIAN RHYTHMS” (THE TRUSTEES OF THE UNIVERSITY OF PENNSYLVANIA, priority 2014, published 2021).
Read-outs that look alike come from different tables or passages of the source.

Details: cited from earlier work
[1] = half-life of therapeutic compound as listed in Table 1

| Structure (SMILES) | ½ Life [1] | other results |
| --- | --- | --- |
| CC(C)C[C@H](NC(=O)CNC(=O)[C@H](Cc1ccc(O)cc1)NC(=O)[C@H](CO)NC(=O)[C@H](Cc1c[nH]c2ccccc12)NC(=O)[C@H](Cc1cnc[nH]1)NC(=O)[C@@H]1CCC(=O)N1)C(=O)N[C@@H](CCCNC(=N)N)C(=O)N1CCC[C@H]1C(=O)NCC(N)=O [Gonadorelin] | – | ½ Life (in vivo): 0.033 h |
| CC(C)C[C@H](NC(=O)[C@@H](COC(C)(C)C)NC(=O)[C@H](Cc1ccc(O)cc1)NC(=O)[C@H](CO)NC(=O)[C@H](Cc1c[nH]c2ccccc12)NC(=O)[C@H](Cc1cnc[nH]1)NC(=O)[C@@H]1CCC(=O)N1)C(=O)N[C@@H](CCCNC(=N)N)C(=O)N1CCC[C@H]1C(=O)NNC(N)=O [Goserelin] | 4 h | – |
| CC(=O)Oc1ccc2c3c1O[C@H]1[C@@H](OC(C)=O)C=C[C@H]4[C@@H](C2)N(C)CC[C@@]341 [Heroin] | 0.166 h | – |
| NNc1nncc2ccccc12 [Hydralazine] | 3 h | – |
| NS(=O)(=O)c1cc2c(cc1Cl)NCNS2(=O)=O [Hydrocholorthiazide, reference compound] | – | ½ Life (in vivo): 5.6 h; half-life (see Table 1): 5.6 h |
| COc1ccc2c3c1O[C@H]1C(=O)CC[C@H]4[C@@H](C2)N(C)CC[C@]314 [Hydrocodone] | – | ½ Life (in vivo): 1.25 h |
| NC(=O)NO [Hydroxyurea] | 3 h | – |
| NC(N)=NCCC[C@@H](N)C(=O)N[C@@H](CCCN=C(N)N)C(=O)N1CCC[C@H]1C(=O)N1C[C@H](O)C[C@H]1C(=O)NCC(=O)N[C@@H](Cc1cccs1)C(=O)N[C@@H](CO)C(=O)N1Cc2ccccc2C[C@@H]1C(=O)N1[C@H](C(=O)N[C@@H](CCCN=C(N)N)C(=O)O)C[C@@H]2CCCC[C@@H]21 [Icatibant] | – | ½ Life (in vivo): 1.4 h |
| CC#CCC(C)[C@H](O)/C=C/[C@@H]1[C@H]2C/C(=C/CCCC(=O)O)C[C@H]2C[C@H]1O (stereo partly drawn) [Iloprost] | 0.333 h | – |
| CC(C)[N+]1(C)[C@@H]2CC[C@H]1CC(OC(=O)C(CO)c1ccccc1)C2.[Br-] (stereo partly drawn) [Ipratropium bromide] | 2 h | – |
| NNC(=O)c1ccncc1 [Isoniazid] | 0.5 h | – |
| O=[N+]([O-])O[C@H]1CO[C@H]2[C@@H]1OC[C@H]2O[N+](=O)[O-] [Isosorbide Dinitrate] | 1 h | – |
| O=[N+]([O-])O[C@@H]1CO[C@H]2[C@@H]1OC[C@@H]2O [Isosorbide Mononitrate] | 5 h | – |
| CNC1(c2ccccc2Cl)CCCCC1=O (stereo not drawn) [Ketamine] | – | ½ Life (in vivo): 2.5 h |
| CCC(=O)C1(c2cccc(O)c2)CCN(C)CC1 [Ketobemidone] | – | ½ Life (in vivo): 2.42 h |
| CC(=O)N1CCN(c2ccc(OCC3COC(Cn4ccnc4)(c4ccc(Cl)cc4Cl)O3)cc2)CC1 (stereo not drawn) [Ketoconazole] | 2 h | – |
| O=C(c1ccccc1)c1ccc2n1CCC2C(=O)O (stereo not drawn) [Ketorolac] | 2.5 h | – |
| N[C@@H](Cc1ccc(O)c(O)c1)C(=O)O [L-DOPA] | – | ½ Life (in vivo): 0.833 h |
| Cc1c(OCC(F)(F)F)ccnc1C[S+]([O-])c1nc2ccccc2[nH]1 (stereo not drawn) [Lansoprazole] | 1.5 h | – |
| CC(C)OC(=O)CCC/C=C\C[C@@H]1[C@@H](CC[C@@H](O)CCc2ccccc2)[C@H](O)C[C@@H]1O [Latanoprost] | 0.283 h | – |
| Nc1cccc2c1CN(C1CCC(=O)NC1=O)C2=O (stereo not drawn) [Lenalidomide] | 3 h | – |
| CCNC(=O)[C@@H]1CCCN1C(=O)[C@H](CCCNC(=N)N)NC(=O)[C@H](CC(C)C)NC(=O)[C@@H](CC(C)C)NC(=O)[C@H](Cc1ccc(O)cc1)NC(=O)[C@H](CO)NC(=O)[C@H](Cc1c[nH]c2ccccc12)NC(=O)[C@H](Cc1c[nH]cn1)NC(=O)[C@@H]1CCC(=O)N1 [Leuprolide] | – | ½ Life (in vivo): 3 h |
| C=CCN1CC[C@]23CCCC[C@H]2[C@H]1Cc1ccc(O)cc13 [Levallorphan] | 1 h | – |
| c1ccc([C@H]2CN3CCSC3=N2)cc1 [Levamisole] | 4.4 h | – |
| C[C@@H]1CC(=O)NN=C1c1ccc(NN=C(C#N)C#N)cc1 [Levosimendan] | 1 h | – |

| Structure (SMILES) | ½ Life [1] | other results |
| --- | --- | --- |
| CN1C(C(=O)Nc2ccccn2)=C(O)c2sc(Cl)cc2S1(=O)=O [Lornoxicam] | 3 h | – |
| CCCCc1nc(Cl)c(CO)n1Cc1ccc(-c2ccccc2-c2nn[nH]n2)cc1 [Losartan, reference compound] | 1 h | – |
| CC[C@H](C)C(=O)O[C@H]1C[C@@H](C)C=C2C=C[C@H](C)[C@H](CC[C@@H]3C[C@@H](O)CC(=O)O3)[C@H]21 [Lovastatin] | 5.3 h | – |
| CN1CCN(C2=Nc3ccccc3Oc3ccc(Cl)cc32)CC1 [Loxapine] | 4 h | – |
| COC(=O)Nc1nc2ccc(C(=O)c3ccccc3)cc2[nH]1 [Mebendazole] | 2.5 h | – |
| Cc1cccc(Nc2ccccc2C(=O)O)c1C [Mefenamic acid] | 2 h | – |
| COc1ccc2[nH]cc(CCNC(C)=O)c2c1 [Melatonin] | 0.5833 h | – |
| CN[C@@H](C)Cc1ccccc1 [Methamphetamine] | 4 h | – |
| Cn1cc[nH]c1=S [Methimazole] | 5 h | – |
| CN1C(=O)CC(C)(c2ccccc2)C1=O (stereo not drawn) [Methsuximide] | 1.4 h | – |
| COC(=O)C(c1ccccc1)C1CCCCN1 (stereo not drawn) [Methylphenidate] | – | ½ Life (in vivo): 3 h |
| C[C@H]1C[C@@H]2[C@H]([C@@H](O)C[C@@]3(C)[C@H]2CC[C@]3(O)C(=O)CO)[C@@]2(C)C=CC(=O)C=C12 [Methylprednisolone] | 1 h | – |
| COc1ccc2cc1Oc1cc3c(cc1OC)CC[N+](C)(C)[C@H]3Cc1ccc(cc1)Oc1c(OC)c(OC)cc3c1[C@@H](C2)[N+](C)(C)CC3 [Metocurine Iodide] | – | ½ Life (in vivo): 3 h |
| Cc1ncc2n1-c1ccc(Cl)cc1C(c1ccccc1F)=NC2 [Midazolam] | – | ½ Life (in vivo): 1.8 h |
| OCCN1C[C@H](O)[C@@H](O)[C@H](O)[C@H]1CO [Miglitol] | 2 h | – |
| Cc1[nH]c(=O)c(C#N)cc1-c1ccncc1 [Milrinone] | 2.3 h | – |
| Nc1cc(N2CCCCC2)nc(N)[n+]1[O-] [Minoxidil] | – | ½ Life (in vivo): 4.2 h |
| COc1cc2c(cc1OC)[C@@H](Cc1cc(OC)c(OC)c(OC)c1)[N+](C)(CCCOC(=O)CC/C=C/CCC(=O)OCCC[N+]1(C)CCc3cc(OC)c(OC)cc3[C@H]1Cc1cc(OC)c(OC)c(OC)c1)CC2 (stereo partly drawn) [Mivacurium] | 1.7 h | – |
| O=C(NCCN1CCOCC1)c1ccc(Cl)cc1 [Moclobemide] | 1 h | – |
| CCOC(=O)[C@H](CCc1ccccc1)N[C@@H](C)C(=O)N1Cc2cc(OC)c(OC)cc2C[C@H]1C(=O)O [Moexipril] | 1 h | – |
| C[C@@H]1C[C@H]2[C@@H]3CCC4=CC(=O)C=C[C@]4(C)[C@@]3(Cl)[C@@H](O)C[C@]2(C)[C@@]1(O)C(=O)CCl [Mometasone] | 5.8 h | – |
| CC(C)(O)c1ccccc1CC[C@@H](SCC1(CC(=O)O)CC1)c1cccc(/C=C/c2ccc3ccc(Cl)cc3n2)c1 [Montelukast] | – | ½ Life (in vivo): 2.7 h |
| CCOC(=O)Nc1ccc2c(c1)N(C(=O)CCN1CCOCC1)c1ccccc1S2 [Moricizine] | 2 h | – |
| CN1CC[C@]23c4c5ccc(O)c4O[C@H]2[C@@H](O)C=C[C@H]3[C@H]1C5 [Morphine] | – | ½ Life (in vivo): 2 h |
| CCCCCCC(C)(C)c1cc(O)c2c(c1)OC(C)(C)C1CCC(=O)CC21 (stereo not drawn) [Nabilone] | 2 h | – |
